Results reported in patent US11406631B2, “Hydrazone derivatives for preventing or treating EBV-related cancers” (Universite de Bretagne Occidentale, priority 2018, dated 2022).

Key:
[1] = test system: EBNA1 expression in EBV-infected cells; assay: Western blot of endogenous EBNA1 in EBV-infected cell lines (B95.8, Mutu-1, Raji); type: cell-based; conditions: GAr-dependent; 2a in B95.8, Mutu-1 and Raji, 11a in Raji
Description: Therefore, compound 2a interferes with the GAr-based inhibition of protein expression. Interference with EBNA1 expression in EBV-infected cells was assessed in different cell lines. The principle of these experiments is the same than the one described in the paragraph just above except that the steady state level of endogenous EBNA1 is determined in these EBV-infected cell lines.
B95.8 cells are derived from cotton-top Tamarin Monkey peripheral blood lymphocyte EBV-positif. Mutu-1 cells are derived from an EBV-positive Burkitt's lymphoma biopsy specimen from a patient. Raji cells are EBV-positive type III latency Burkitt's lymphoma.
Compounds 2a and 11a increase in a GAr-dependent manner EBNA1 expression in EBV-infected cells.

[2] = test system: quadruplex RNA F-EBNA1-T; assay: FRET-melting assay; type: binding, Epstein-Barr virus; conditions: for ΔTm, ligand + 3 μM ds26 / ΔTm, ligand + 10 μM ds26 / ΔTm, ligand alone: F-EBNA1-T 0.2 μM, ligand 1.0 μM, K+10 buffer; for ΔTm, ligand + 3 μM ds26: competitor DNA ds26 3 μM (15 eq); for ΔTm, ligand + 10 μM ds26: competitor DNA ds26 10 μM (50 eq); for ΔTm, ligand alone: no competitor; for affinity for the G-quadruplex structure of EBNA1 (in words, FRET-melting data): conclusion from Table 2
Text: The FRET-melting assay is based on thermal denaturation of G4-ARN monitored by fluorescence due to the phenomenon of Förster Resonance Energy Transfer (FRET). This method uses quadruplex-forming RNA sequence dual-labeled with two different fluorophores: a donor (fluorescein, or FAM) and an acceptor (tetramethylrhodamine, or TAMRA). When RNA is folded into G-quadruplex (G4) structure, fluorescence of the donor fluorophore is weak due to strong energy transfer (FRET) to the neighboring acceptor fluorophore. Upon thermal denaturation, the quadruplex unfolds and the fluorophores are separated, leading to decrease of the FRET effect and increase of the fluorescence of the donor (see FIG. 2). By following the fluorescence of the donor as a function of temperature, a melting curve of the G-quadruplex RNA can be obtained, which allows determining the temperature of denaturation at which 50% of the quadruples is unfolded (T1, FIG. 3).
The FRET-melting assay allows assessing the affinity of small molecules (ligands) for the G4-RNA. The addition of a G4-ligand stabilizes the G-quadruplex structure and increases the denaturation temperature. The temperature of denaturation in the presence of ligands (T2) can be compared with that obtained in the absence of ligands (T1). The value of ΔTm (ΔTm=T2−T1) represents a measure of the affinity of the compounds of the invention (ligand). Generally, values of ΔTm>20° C. correspond to ligands of high affinity.
The dual-labeled oligoribonucleotide EBNA1 [5′-FAM-r(GGGGCAGGAGCAGGAGGA)-TAMRA-3′] (SEQ ID no 2) purified by reversed-phase HPLC was purchased from Eurogentec. The donor fluorophore was 6-carboxyfluorescein (FAM) and the acceptor fluorophore was 6-carboxytetramethylrhodamine (TAMRA).
Stock solutions of the ligands (2 mM in DMSO) were used for FRET-melting assay, unless otherwise stated, and were stored at −20° C. FRET-melting measurements are performed on 7900HT Fast Real-Time PCR System (Applied Biosystems) with Microamp Fast optical 96-well reaction plate (Applied Biosystems).
Preparation of Oligonucleotides For FRET-melting assay, oligoribonucleotide F-EBNA1-T was dissolved in K^+10 buffer (10 mM lithium cacodylate buffer, pH 7.3, supplemented with 10 mM KCl and 90 mM LiCl).
Prior to use, all oligonucleotides were pre-treated by heating at 95° C. for 5 min, then rapidly cooled to 4° C. to favor the intramolecular folding by kinetic trapping. Duplex-DNA ds26 (5′CAA-TCG-GAT-CGA-ATT-CGA-TCC-GAT-TG-3′) (SEQ ID no 3) was prepared by heating this self-complementary strand at 90° C. for 5 min in K^+10 buffer followed by a slow cooling over 6 h.
FRET-melting assay is performed in 96-well plates on real time PCR apparatus 7900HT Fast Real-Time PCR System using the heating ramp as follow: 5 min at 25° C., then increase of 0.5° C. every minute until 95° C. Each experimental condition was tested in duplicated in a volume of 25 μL for each sample. The 96-well plates (Applied Biosystems) were prepared by aliquoting the annealed RNA (24 μL of 0.21 μM solution in K^+10 buffer) into each well, followed by 1 μL of ligand solution (25 μM in K^+10 buffer). For competition experiments, duplex competitors were added to 200 nM quadruplex sequences at final concentrations of 3.0 μM (15 eq) and 10.0 μM (50 eq), with a total reaction volume of 25 μL, with the labeled oligoribonucleotide (0.2 μM) and the ligand (1.0 μM). Measurements were made with excitation at 492 nm and detection at 516 nm. The change in the melting temperature in the presence of 1.0 μM putative ligand, ΔTm (1.0 μM), was calculated from at least two experiments by subtraction of the blank from the averaged melting temperature of each compound (1.0 μM).
The results are shown in FIG. 4 and in Table 2 below (higher ΔTm values indicate higher affinity of the compounds to G4-RNA structure of EBNA1).

[3] = test system: GAr-limited antigen presentation; assay: Antigen presentation assay (IL-2 ELISA); type: cell-based; conditions: 5 μM and 10 μM, compared to DMSO-treated cells
Description: Stars indicate significant results (the higher the number of stars, the more significant). […]ns[…] stands for not significant.
The aim of this assay was to determine if compounds 2a and 11a were able to interfere (suppress) with the GAr-dependent limitation of EBNA1-derived antigenic peptid presentation. H1299 cells were transfected with 235GAr-OVA or OVA plasmids and murine MHC class I Kb plasmids. T-cell proliferation is determined using ELISA assay for Mouse IL-2 (IL-2 is a potent lymphoid cell growth factor which exerts its biological activity primarily in T cell). There is therefore a correlation between the quantity of IL2 released and the T-cell proliferation.
Quantifications of IL2 release following treatment with compounds 2a or 11a, as compared to DMSO-treated cells are shown in the FIG. 7. […] These compounds thus increase T-cell proliferation.

[4] = test system: GAr-based inhibition of translation; assay: Yeast assay (assays described in Lista et al.); type: cell-based, Saccharomyces cerevisiae
Text: A yeast-based (Saccharomyces cerevisiae) assay that recapitulates all the aspects of the GAr-based inhibition of translation, including the GAr-length dependency, has been developed, that allowed understanding the mechanisms of GAr-mediated mRNA translation—suppression in cis, as well as the cellular factors involved (Lista et al. Biotechnol J 2015, 10, 1670-1681). This assay was successfully used to identify small molecular weight compounds that can stimulate EBNA1 expression both in yeast and mammalian cells and that relieve GAr-based limitation of antigen presentation (Voisset et al. Dis Model Mech 2014, 7, 435-444).
Compounds 1a, 2a, 4a, 5a, 7a, 10a and 11a were also tested in the various assay described in Lista et al. (Nat Commun 2017, 8, 16043).

## C[n+]1ccc(C=NNC(=O)c2cccc(C(=O)NN=Cc3cc[n+](C)c4ccccc34)n2)c2ccccc21.[I-].[I-] [Compound 2a, N′^2, N′^6-Bis[(1-methylquinolinium-4-yl)methylene]pyridine-2,6-dicarbohydrazide iodide]
[1]
  EBNA1 expression in EBV-infected cells: increase
[2]
  ΔTm, ligand + 3 μM ds26: 16.1 ± 0.4 °C
  ΔTm, ligand + 10 μM ds26: 14.2 ± 0.7 °C
  ΔTm, ligand alone: 16.4 ± 0.4 °C
  affinity for the G-quadruplex structure of EBNA1 (in words, FRET-melting data): particularly high affinity
[3]
  release of IL-2, H1299 cells expressing 235GAr-OVA: significantly increased (two-fold change)
  release of IL-2, OVA-expressing cells: no effect
[4]
  result in the yeast assay: positive results

## C[n+]1ccc(C=NNC(=O)c2ccc3ccc4ccc(C(=O)NN=Cc5cc[n+](C)c6ccccc56)nc4c3n2)c2ccccc21.[I-].[I-] [Compound 11a, N′^2,N′^9-Bis[(1-methylquinolinium-4-yl)methylene]-1,10-phenanthroline-2,9-dicarbohydrazide iodide]
[1]
  EBNA1 expression in EBV-infected cells: increase
[2]
  ΔTm, ligand + 3 μM ds26: 21.1 ± 0.6 °C
  ΔTm, ligand + 10 μM ds26: 19.3 ± 1.1 °C
  ΔTm, ligand alone: 21.5 ± 0.2 °C
  affinity for the G-quadruplex structure of EBNA1 (in words, FRET-melting data): particularly high affinity
[3]
  release of IL-2, H1299 cells expressing 235GAr-OVA: significantly increased (two-fold change)
  release of IL-2, OVA-expressing cells: no effect
[4]
  result in the yeast assay: positive results
